# Experimental data: ChEMBL document CHEMBL5356971, “Optimization of the Antibacterial Spectrum and the Developability Profile of the Novel-Class Natural Product Corramycin” (J Med Chem, 2023)
# Calls of active or inactive are those of the source. No cut-off for these calls is given here.
# Columns and labels:
# HepG2 = assay: Cytotoxicity against human HepG2 cells assessed as inhibition of cell growth at 30 uM incubated for 40 hrs by celltiterglo assay; format: functional
# [1] = biological target: Voltage-gated inwardly rectifying potassium channel KCNH2 (Homo sapiens, UniProt Q12809); assay: Inhibition of hERG; format: toxicity; conditions: human
# Sequence of Voltage-gated inwardly rectifying potassium channel KCNH2 (Q12809 whole entry): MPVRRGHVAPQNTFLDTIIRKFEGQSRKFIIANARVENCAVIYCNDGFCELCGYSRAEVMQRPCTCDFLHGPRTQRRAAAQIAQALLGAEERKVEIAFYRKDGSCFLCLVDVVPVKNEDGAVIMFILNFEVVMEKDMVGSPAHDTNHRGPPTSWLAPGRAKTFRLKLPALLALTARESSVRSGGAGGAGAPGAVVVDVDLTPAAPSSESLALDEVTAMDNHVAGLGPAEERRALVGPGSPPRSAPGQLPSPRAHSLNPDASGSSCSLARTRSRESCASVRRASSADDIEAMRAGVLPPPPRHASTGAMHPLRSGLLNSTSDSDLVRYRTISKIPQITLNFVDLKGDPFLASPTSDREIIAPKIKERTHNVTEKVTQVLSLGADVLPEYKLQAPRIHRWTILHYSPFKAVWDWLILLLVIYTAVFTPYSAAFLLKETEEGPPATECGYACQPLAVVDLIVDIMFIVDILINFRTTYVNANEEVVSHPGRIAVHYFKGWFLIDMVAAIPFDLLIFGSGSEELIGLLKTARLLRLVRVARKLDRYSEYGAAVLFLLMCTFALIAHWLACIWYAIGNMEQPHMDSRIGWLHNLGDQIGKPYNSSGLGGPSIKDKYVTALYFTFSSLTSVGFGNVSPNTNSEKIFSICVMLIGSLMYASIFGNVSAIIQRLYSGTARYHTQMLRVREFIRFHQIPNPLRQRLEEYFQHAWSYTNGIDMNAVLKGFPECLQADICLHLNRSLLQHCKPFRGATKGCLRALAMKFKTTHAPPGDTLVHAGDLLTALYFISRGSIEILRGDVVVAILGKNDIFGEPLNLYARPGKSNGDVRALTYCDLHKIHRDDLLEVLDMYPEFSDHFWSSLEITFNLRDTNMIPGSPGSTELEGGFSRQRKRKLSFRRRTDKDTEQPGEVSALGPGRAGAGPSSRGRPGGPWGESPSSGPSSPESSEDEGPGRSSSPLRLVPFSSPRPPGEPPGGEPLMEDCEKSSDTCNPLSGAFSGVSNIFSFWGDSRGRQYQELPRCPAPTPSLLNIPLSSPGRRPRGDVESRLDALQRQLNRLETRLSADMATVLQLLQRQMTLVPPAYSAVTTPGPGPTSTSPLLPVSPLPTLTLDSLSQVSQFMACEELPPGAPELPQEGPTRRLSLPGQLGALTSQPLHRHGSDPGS
# [2] = Metabolic stability in mouse lung assessed as parent compound remaining measured after 4 hrs by UPLC-MS analysis; format: ADME, tissue-based; conditions: mouse lung, read-out: Stability
# [3] = Metabolic stability in mouse lung assessed as parent compound remaining measured after 1 hrs by UPLC-MS analysis; format: ADME, tissue-based; conditions: mouse lung, read-out: Stability
# [4] = Metabolic stability in mouse kidney assessed as parent compound remaining measured after 1 hrs by UPLC-MS analysis; format: ADME, tissue-based; conditions: read-out: Stability
# Klebsiella pneumoniae [5] = assay: Antibacterial activity against Klebsiella pneumoniae ATCC 13883 harboring SbmA assessed as reduction in microbial growth incubated for 20 to 22 hrs by CLSI based analysis; format: functional; conditions: time 20-22 hrs
# [6] = Toxicity in Swiss albino mouse at 10 mg/kg, iv measured after 1 hr; format: organism-based; conditions: in vivo
# Escherichia coli [7] = assay: Antibacterial activity against multidrug-resistant Escherichia coli BAA2469 assessed as bacterial growth inhibition incubated for 20 to 22 hrs by CLSI based analysis; format: functional; conditions: time 20-22 hrs
# Escherichia coli [8] = assay: Antibacterial activity against multidrug-resistant Escherichia coli MG1655 harboring tolC mutant assessed as bacterial growth inhibition incubated for 20 to 22 hrs by CLSI based analysis; format: functional; conditions: time 20-22 hrs
# Klebsiella pneumoniae [9] = assay: Antibacterial activity against […] assessed as bacterial growth inhibition incubated for 20 to 22 hrs by CLSI based analysis; format: functional; conditions: time 20-22 hrs
# Klebsiella pneumoniae [10] = assay: Antibacterial activity against multidrug-resistant Klebsiella pneumoniae BAA2146 assessed as bacterial growth inhibition incubated for 20 to 22 hrs by CLSI based analysis; format: functional; conditions: time 20-22 hrs
# Klebsiella pneumoniae [11] = assay: Antibacterial activity against multidrug-resistant Klebsiella pneumoniae BAA2473 assessed as bacterial growth inhibition incubated for 20 to 22 hrs by CLSI based analysis; format: functional; conditions: time 20-22 hrs
# Klebsiella pneumoniae [12] = assay: Antibacterial activity against multidrug-resistant Klebsiella pneumoniae R1525 assessed as bacterial growth inhibition incubated for 20 to 22 hrs by CLSI based analysis; format: functional; conditions: time 20-22 hrs
# Klebsiella pneumoniae [13] = assay: Antibacterial activity against multidrug-resistant Klebsiella pneumoniae B817 assessed as bacterial growth inhibition incubated for 20 to 22 hrs by CLSI based analysis; format: functional; conditions: time 20-22 hrs
# Providencia stuartii = assay: Antibacterial activity against multidrug-resistant Providencia stuartii ATCC 49809 assessed as bacterial growth inhibition incubated for 20 to 22 hrs by CLSI based analysis; format: functional; conditions: time 20-22 hrs
# [14] = Aqueous solubility of compound at pH 5.5; format: physicochemical; conditions: buffer
# [15] = AUClast in Swiss mouse Lung at 3 mg/kg, iv measured upto 24 hrs by LC-MS/MS analysis; format: ADME, organism-based; parameters: time < 24 hrs, dose 3 mg/kg, route iv
# [16] = Observed clearance Swiss mouse at 3 mg/kg, iv measured upto 24 hrs by LC-MS/MS analysis; format: ADME, organism-based; conditions: in vivo
# [17] = Ratio of AUC in kidney to plasma in Swiss mouse at 3 mg/kg, iv measured upto 24 hrs by LC-MS/MS analysis; format: ADME, organism-based; conditions: read-out: Ratio AUC
# Escherichia coli [18] = assay: Antibacterial activity against Escherichia coli UT189 infected in Swiss albino mouse model of urinary tract infection assessed as log reduction in bacteremia in kidney at 10 mg/kg, iv pre-infected with bacteria for 24 hrs followed by compound treatment for every 24 hrs for 3 days; format: functional; conditions: time 3 day
smiles,measurement,setting,value
CO[C@@H](CNC(=O)[C@H](NC(=O)[C@H](O)[C@H](C)O)[C@H](O)c1cncn1C)[C@H](O)[C@H](O)C(=O)N(C)[C@@H](Cc1ccccc1)C(=O)NCC(=O)N[C@H](C(=O)N[C@@H](CO)C(=O)N[C@H](C(=O)N[C@H](C(=O)N[C@@H](CC(=O)O)C(=O)N1CCC[C@H]1C(=O)NCc1cc(=O)c(O)cn1O)C(C)(C)C)C(C)(C)O)C(C)(C)O,Activity,HepG2,inactive
same,inhibition (INH),[1],Not Active
same,remaining at 4 h,[2],80%
same,remaining at 1 h,[3],100%
same,remaining at 1 h,[4],103%
same,MIC,Klebsiella pneumoniae [5],16 µg/mL
same,Activity,[6],Non-Toxic
same,MIC,Escherichia coli [7],0.06 µg/mL
same,MIC,Escherichia coli [8],0.01 µg/mL
same,MIC,Klebsiella pneumoniae [9],0.06 µg/mL
same,MIC,Klebsiella pneumoniae [10],0.12 µg/mL
same,MIC,Klebsiella pneumoniae [11],4 µg/mL
same,MIC,Klebsiella pneumoniae [12],0.06 µg/mL
same,MIC,Klebsiella pneumoniae [13],0.03 µg/mL
same,MIC,Providencia stuartii,0.06 µg/mL
same,solubility,[14],9100 µg/mL
same,AUC(0-t) at 24 h,[15],1010 ng·h/mL
same,clearance,[16],13.5 mL/min/kg
same,Kp at 24 h,[17],2.5
same,log(activity),Escherichia coli [18],3.6
